{"source": "patent US20140148498A1", "about": "“METHODS AND COMPOSITIONS FOR THE TREATMENT OF MARFAN SYNDROME AND ASSOCIATED DISORDERS” (THE JOHNS HOPKINS UNIVERSITY, priority 2011, published 2014)", "key": {"[1]": {"tested_on": "p38", "assay": "Western blot of proximal ascending aorta: p38 activation (Examples 4-5)", "assay_type": "in vivo, mice", "description": "(§1) All mice were cared for under strict compliance with the Animal Care and Use Committee of the Johns Hopkins University School of Medicine. The Fbn1^C1039G/+ and AT2KO lines were maintained n a pure C57BL/6 background (backcrossed for greater than 9 generations), allowing for valid comparisons. In order to further accommodate the potential for temporal- or background-specified variation, all comparisons were made between contemporary littermates when possible. The AT21C0 mice were obtained as a generous gift from Dr. Inagami (T. Ichiki et al., Nature 377, 748 (1995)). The Agtr2 gene resides on the X chromosome and therefore we used either male mice carrying the mutated allele (who are hemizygous) or homozygous females, both of which have been previously shown to be functionally null for the AT2 receptor (T. Ichiki et al., Nature 377, 748 (1995)). Mice were sacrificed with an inhalation overdose of halothane (Sigma-Aldrich, St. Louis). Mice underwent immediate laparotomy, descending abdominal aortic transection, and PBS (pH 7.4) was infused through the right and left ventricles to flush out the blood. Mice that were analyzed for Western Blot analysis had their proximal ascending aortas (root to right brachiocephalic trunk) immediately dissected out, flash frozen in liquid nitrogen and stored at −80d until further processing. Mice that were analyzed for aortic histology had latex injected under low pressure into the left ventricular apex until it was visible in the descending abdominal aorta. Mice that were analyzed for lung histology had their trachea intubated with a 20-gauge blunted needle, and 0.5% agar was infused under a low and constant pressure to gradually inflate the lungs. […]\n(§2) Mouse aortic root and ascending aortas (aortic root excluding the aortic valve to origin of right brachiocephalic trunk) were harvested, snap-frozen in liquid nitrogen and stored at −80° C. until processed. […] Equal protein loading of samples was determined by a protein assay (BioRad, CA), and confirmed by probing with antibodies against β-Actin or GAPDH (Sigma, Mo.). […]"}, "[2]": {"tested_on": "ERK1/2", "assay": "Western blot of aortic root and proximal ascending aorta: ERK1/2 activation (Examples 4-5)", "assay_type": "in vivo, mice", "description": "as §1, §2"}, "[3]": {"tested_on": "Fbn1^C1039G/+ mice", "assay": "Aortic root growth by echocardiography, 7 months of treatment (Examples 3-5)", "assay_type": "in vivo", "details": "for Final absolute aortic root diameter: 7 months of treatment, mean +/- 2 SEM", "procedure": "A head-to-head comparison of ACEi versus ARBs was performed. Fbn1^C1039G/+ mice and WT littermates were treated with hemodynamically equivalent doses (FIG. 8) of either the ACEi enalapril (10 to 15 mg/kg of body weight per day) or the ARB losartan (40 to 60 mg/kg per day) (R. D. Patten et al., Clin. Sci 104, 109 (2003)), beginning at 8 weeks of age, and were assessed with serial echocardiograms. […] It is noteworthy that losartan reduced aortic root growth in Fbn1^C1039G/+ mice, but had no effect in WT littermates (P=0.27). […] Whether AT2 signaling is needed to achieve losartan's full therapeutic benefit was assessed. AT2KO:Fbn1^C1039G/+ mice were treated with losartan from 8 weeks of age and followed by serial echocardiography until they were killed at 9 months of age (FIG. 2C).\nAll mice were cared for under strict compliance with the Animal Care and Use Committee of the Johns Hopkins University School of Medicine. The Fbn1^C1039G/+ and AT2KO lines were maintained n a pure C57BL/6 background (backcrossed for greater than 9 generations), allowing for valid comparisons. In order to further accommodate the potential for temporal- or background-specified variation, all comparisons were made between contemporary littermates when possible. The AT21C0 mice were obtained as a generous gift from Dr. Inagami (T. Ichiki et al., Nature 377, 748 (1995)). The Agtr2 gene resides on the X chromosome and therefore we used either male mice carrying the mutated allele (who are hemizygous) or homozygous females, both of which have been previously shown to be functionally null for the AT2 receptor (T. Ichiki et al., Nature 377, 748 (1995)). Mice were sacrificed with an inhalation overdose of halothane (Sigma-Aldrich, St. Louis). Mice underwent immediate laparotomy, descending abdominal aortic transection, and PBS (pH 7.4) was infused through the right and left ventricles to flush out the blood. Mice that were analyzed for Western Blot analysis had their proximal ascending aortas (root to right brachiocephalic trunk) immediately dissected out, flash frozen in liquid nitrogen and stored at −80d until further processing. Mice that were analyzed for aortic histology had latex injected under low pressure into the left ventricular apex until it was visible in the descending abdominal aorta. Mice that were analyzed for lung histology had their trachea intubated with a 20-gauge blunted needle, and 0.5% agar was infused under a low and constant pressure to gradually inflate the lungs. The trachea was then tied-off using vicryl and the needle was removed. Mice were fixed for 24 hours in 10% buffered formalin, after which the heart, aorta and lungs were removed and stored in 70% ethanol.\n(§3) Mice were started on medication at 8 weeks of age and continued for 7 months. Losartan was dissolved in drinking water and filtered to reach a concentration of 0.6 g/L, giving an estimated daily dose of 40-60 mg/kg/day. Enalapril was dissolved in drinking water and filtered to reach a final concentration of 0.15 g/L, giving an estimated daily dose of 10-15 mg/kg/day. […] Spironolactone was dissolved in drinking water and filtered to give an estimated dose of 20 mg/kg/day, a dose previously shown to have in-vivo phenotypic benefit in cardiovascular disease states (S. Sakurabayashi-Kitade et al., Atherosclerosis 206, 54 (2009)). Placebo-treated animals received regular drinking water. Blood pressures were analyzed by taking 20 tail cuff blood pressures per day over 5 days in each mouse to habituate the mice to the tail cuff pressure system, and the blood pressures obtained on the last day were averaged. At least 4 mice for each treatment group were analyzed.\nNair hair removal cream was used on all mice the day prior to echocardiograms. All echocardiograms were performed on awake, unsedated mice using the Visualsonics Vevo 660 V1.3.6 imaging system and a 30 MHz transducer. Mice were imaged at baseline, 1 month after treatment and then every two months until the time of sacrifice. […]"}, "[4]": {"tested_on": "Fbn1^C1039G/+ mice", "assay": "Systolic blood pressure by tail cuff", "assay_type": "in vivo", "details": "compared to placebo-treated animals, FIG. 8", "procedure": "as §3"}, "[5]": {"tested_on": "AT2KO:Fbn1^C1039G/+ mice", "assay": "Systolic blood pressure by tail cuff, MFS mice lacking AT2", "assay_type": "in vivo", "details": "AT2KO:Fbn1^C1039G/+ versus Fbn1^C1039G/+ mice, FIG. 8", "procedure": "as §3"}}, "note": "“Also recorded” adds a separate entry of the source."}
{"smiles": "CCCCc1nc(Cl)c(CO)n1Cc1ccc(-c2ccccc2-c2nn[nH]n2)cc1", "note": "[losartan]", "values": [{"measurement": "p38 activation", "setting": "[1]; Fbn1^C1039G/+ mice, FIG. 13", "value": "do not affect p38 activation; also recorded: neither had any effect"}, {"measurement": "p38 activation", "setting": "[1]; treated AT2KO:Fbn1^C1039G/+ versus treated Fbn1^C1039G/+ mice, FIG. 14", "value": "no significant change; also recorded: no significant difference"}, {"measurement": "ERK1/2 activation", "setting": "[2]; AT2KO:Fbn1^C1039G/+ mice, FIG. 10C and 14", "value": "ability to inhibit ERK1/2 activation is lost; also recorded: reduced ability to lower ERK1/2 activation; also recorded: loses its ability to decrease ERK1/2 activation"}, {"measurement": "ERK1/2 activation", "setting": "[2]; Fbn1^C1039G/+ mice, FIG. 10B", "value": "reduced it to WT levels; also recorded: reduced ERK1/2 activation to levels indistinguishable from WT littermates"}, {"measurement": "Final absolute aortic root diameter", "setting": "[3]; FIG. 2B", "value": "1.96+/−0.09 mm"}, {"measurement": "Final absolute aortic root diameter", "setting": "[3]; FIG. 2C", "value": "1.96+/−0.09 mm"}, {"measurement": "Aortic root growth over 7 months of treatment", "setting": "[3]; versus placebo, drug in drinking water from 8 weeks of age", "value": "significant regression in growth; also recorded: regression in aortic size"}, {"measurement": "Systolic blood pressure", "setting": "[4]", "value": "equal reduction in systolic blood pressure"}, {"measurement": "Systolic blood pressure", "setting": "[5]", "value": "no difference in blood pressure between the groups; also recorded: lowered blood pressure equally"}]}
